Test results as given in patent US20250205200A1, “5-METHOXY-N,N-[…][…] THE TREATMENT OF […]” (GH RESEARCH IRELAND LIMITED, priority 2022, published 2025).

What was measured:
[1] = tested on: Escherichia coli (WP2 uvrA pKM101); assay: Bacterial mutation test, Escherichia coli; type: cell-based; conditions: up to 5000 μg/plate; absence and presence of S-9
Experimental: (§1) These conditions included treatments at concentrations up to 5000 μg/plate (the maximum recommended concentration according to current regulatory guidelines), in the absence and in the presence of a rat liver metabolic activation system (S-9).

[2] = Pharmacokinetics of 5-MeO-DMT and bufotenine after inhalation; type: in vivo, human
[3] = tested on: Salmonella typhimurium (TA98, TA100, TA1535 and TA1537); assay: Bacterial mutation test, Salmonella typhimurium; type: cell-based; conditions: up to 5000 μg/plate; absence and presence of S-9
Experimental: as §1

COc1ccc2[nH]cc(CCN(C)C)c2c1 [5-MeO-DMT]
Induction of mutation [1]: did not induce mutation | Plasma concentration as % of Cmax ([2]; 10 minutes after inhalation, 6, 12, 18 mg): ≤ 10 % of Cmax | Plasma concentration as % of Cmax ([2]; 2 hours after inhalation, 6, 12, 18 mg): ≤ 1 % of Cmax | Detectability in the plasma ([2]; 3 hours after inhalation, 6, 12, 18 mg): no longer detectable | Time of maximum concentrations and pharmacological effects ([2]; inhaled): during and immediately after dosing | Accumulation upon repeated administration ([2]; repeated administration within 1 to 4 hours): No accumulation | Induction of mutation [3]: did not induce mutation
